The values below come from patent US12605401B2, “Polymers, compositions and methods for treating hyperuricemia” (WATERSTONE PHARMACEUTICALS (WUHAN) CO., LTD., priority 2021, dated 2026).

The structures appear in SMILES notation.

For the experiment, the system named is chronic hyperuricemia model rats. Put plainly: Chronic hyperuricemia model, adenine + ethambutol, 21 days; serum UA, CREA, UREA. The format is in vivo. As for the experimental part: 48 rats were randomly divided into 6 groups with 8 rats in each group. The groups were as follows: Blank Group (Vehicle, ig), Model Group (Vehicle, ig), Positive control group (Allopurinol, 10 mg/kg, ig), Compound 1 group (Sevelamer carbonate, 250 mg/kg, ig), Compound 2 low-dose group (TAA polymer, 50 mg/kg, ig), Compound 2 high-dose group (TAA polymer, 250 mg/kg, ig). Except for blank group, rats in other groups were modeled according to the chronic modeling method. The modeling method was as follows: rats were given Adenine (100 mg/kg)+Ethambutol (250 mg/kg) by gavage, once a day, for 21 days. Animals in blank group and model group were given equal volume of normal saline by gavage. Animals in positive control group were given positive 10 mg/kg Alloalcohol, once in the first week, once in the second week, once a day for 3 days before sampling in the third week. Animals in other groups were given intragastric administration once a day for 14 consecutive days from the 8th day of modeling. Blood samples were taken at Day 21 after modeling, and serum samples were separated and stored at −80° C. for biochemical detection.
After 21 days of modeling (14 days of drug treatment), blood samples were taken and serum separation was performed to detect three renal functions (UA, CREA and UREA) (See Table 1 and FIGS. 2a, 2b and 2c). Compound 1 is Sevelamer carbonate and Compound 2 is a graft polytriallylamine with 50% molar percentage of the moiety to the tertiary amine in polytriallylamine.

Consider `Oc1ncnc2[nH]ncc12` [Allopurinol], for which, for the setting “10 mg/kg ig, day 21”, the “CREA, effect in words” value is listed as “significantly reduced”; the “UA, effect in words” value is “significantly reduced”; the “UREA, effect in words” value is on record as “significantly reduced”. Moreover, the “CREA and UREA, conclusion in words (protective effect on the kidney)” value (conclusion over the dose groups) is recorded as “can decrease”.
